Each structure is given as a SMILES string.

The test system of the assay is recombinant NL4-3 virus (Renilla luciferase in nef, Gag P373S). Nature of the assay: HIV cell culture assay (luciferase activity in MT-2 cells infected with NLRluc recombinant virus). The note with it: NL43, MT-2 cells infected 4-5 days with NLRluc recombinant virus, class symbol. Type of assay: cell-based. In short, it runs like this:
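MT-2 cells in RPMI/10% FBS were infected with recombinant NL4-3 (NLRluc), produced by 293T transfection and titered in MT-2 by luciferase. Serial inhibitor dilutions were present throughout a 4–5 day infection. Antiviral activity was quantified as Renilla luciferase signal via a modified Dual Luciferase read.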
As usually defined, the EC50 is the concentration that produces a half-maximal response. As to `C=C(C)[C@@H]1CC[C@]2(CNCCN3CCC(F)(F)CC3)CC[C@]3(C)[C@H](CC[C@@H]4[C@@]5(C)CC=C(c6ccc(C(=O)O)cc6)C(C)(C)[C@@H]5CC[C@]43C)[C@@H]12` [Example 48, 4-((1R,3aS,5aR,5bR,7aR,11aS,11bR,13aR,13bR)-3a-((2-(4,4-difluoropiperidin-1-yl)ethylamino)methyl)-5a,5b,8,8,11a-pentamethyl-1-(prop-1-en-2-yl)-2,3,3a,4,5,5a,5b,6,7,7a,8,11,11a,11b,12,13,13a,13b-octadecahydro-1H-cyclopenta[a]chrysen-9-yl)benzoic acid], the EC50 is less than 100 nM. The same measure for `C=C(C)[C@@H]1CC[C@]2(CN[C@@H](CC(=O)OC)C(=O)OC)CC[C@]3(C)[C@H](CC[C@@H]4[C@@]5(C)CC=C(c6ccc(C(=O)O)cc6)C(C)(C)[C@@H]5CC[C@]43C)[C@@H]12` [Example 49, 4-((1R,3aS,5aR,5bR,7aR,11aS,11bR,13aR,13bR)-3a-(((S)-1,4-dimethoxy-1,4-dioxobutan-2-ylamino)methyl)-5a,5b,8,8,11a-pentamethyl-1-(prop-1-en-2-yl)-2,3,3a,4,5,5a,5b,6,7,7a,8,11,11a,11b,12,13,13a,13b-octadecahydro-1H-cyclopenta[a]chrysen-9-yl)benzoic acid]: less than 100 nM. The same measure for `C=C(C)[C@@H]1CC[C@]2(CNC3(C(=O)O)CC3)CC[C@]3(C)[C@H](CC[C@@H]4[C@@]5(C)CC=C(c6ccc(C(=O)O)cc6)C(C)(C)[C@@H]5CC[C@]43C)[C@@H]12` [Example 50, 4-((1R,3aS,5aR,5bR,7aR,11aS,11bR,13aR,13bR)-3a-((1-carboxycyclopropylamino)methyl)-5a,5b,8,8,11a-pentamethyl-1-(prop-1-en-2-yl)-2,3,3a,4,5,5a,5b,6,7,7a,8,11,11a,11b,12,13,13a,13b-octadecahydro-1H-cyclopenta[a]chrysen-9-yl)benzoic acid]: less than 100 nM; for `C=C(C)[C@@H]1CC[C@]2(CNC3(C(=O)OC)CC3)CC[C@]3(C)[C@H](CC[C@@H]4[C@@]5(C)CC=C(c6ccc(C(=O)O)cc6)C(C)(C)[C@@H]5CC[C@]43C)[C@@H]12` [Example 51, 4-((1R,3aS,5aR,5bR,7aR,11aS,11bR,13aR,13bR)-3a-((1-(methoxycarbonyl)cyclopropylamino)methyl)-5a,5b,8,8,11a-pentamethyl-1-(prop-1-en-2-yl)-2,3,3a,4,5,5a,5b,6,7,7a,8,11,11a,11b,12,13,13a,13b-octadecahydro-1H-cyclopenta[a]chrysen-9-yl)benzoic acid]: less than 100 nM.

Regarding `C=C(C)[C@@H]1CC[C@]2(CNC3(CN(CC)CC)CC3)CC[C@]3(C)[C@H](CC[C@@H]4[C@@]5(C)CC=C(c6ccc(C(=O)O)cc6)C(C)(C)[C@@H]5CC[C@]43C)[C@@H]12` [Example 52, 4-((1R,3aS,5aR,5bR,7aR,11aS,11bR,13aR,13bR)-3a-((1-((diethylamino)methyl)cyclopropylamino)methyl)-5a,5b,8,8,11a-pentamethyl-1-(prop-1-en-2-yl)-2,3,3a,4,5,5a,5b,6,7,7a,8,11,11a,11b,12,13,13a,13b-octadecahydro-1H-cyclopenta[a]chrysen-9-yl)benzoic acid], the EC50 was less than 100 nM.

Regarding `C=C(C)[C@@H]1CC[C@]2(CNCc3ccoc3)CC[C@]3(C)[C@H](CC[C@@H]4[C@@]5(C)CC=C(c6ccc(C(=O)O)cc6)C(C)(C)[C@@H]5CC[C@]43C)[C@@H]12` [Example 53, 4-((1R,3aS,5aR,5bR,7aR,11aS,11bR,13aR,13bR)-3a-((furan-3-ylmethylamino)methyl)-5a,5b,8,8,11a-pentamethyl-1-(prop-1-en-2-yl)-2,3,3a,4,5,5a,5b,6,7,7a,8,11,11a,11b,12,13,13a,13b-octadecahydro-1H-cyclopenta[a]chrysen-9-yl)benzoic acid], the EC50 was less than 100 nM. Regarding `C=C(C)[C@@H]1CC[C@]2(CNCCCC(=O)N3CCS(=O)(=O)CC3)CC[C@]3(C)[C@H](CC[C@@H]4[C@@]5(C)CC=C(c6ccc(C(=O)O)cc6)C(C)(C)[C@@H]5CC[C@]43C)[C@@H]12` [Example 54, 4-((1R,3aS,5aR,5bR,7aR,11aS,11bR,13aR,13bR)-3a-(((4-(1,1-dioxido-4-thiomorpholinyl)-4-oxobutyl)amino)methyl)-1-isopropenyl-5a,5b,8,8,11a-pentamethyl-2,3,3a,4,5,5a,5b,6,7,7a,8,11,11a,11b,12,13,13a,13b-octadecahydro-1H-cyclopenta[a]chrysen-9-yl)benzoic acid], the EC50 was less than 100 nM. Under `C=C(C)[C@@H]1CC[C@]2(CNCCCn3ccnc3)CC[C@]3(C)[C@H](CC[C@@H]4[C@@]5(C)CC=C(c6ccc(C(=O)O)cc6)C(C)(C)[C@@H]5CC[C@]43C)[C@@H]12` [Example 55, 4-((1R,3aS,5aR,5bR,7aR,11aS,11bR,13aR,13bR)-3a-((3-(1H-imidazol-1-yl)propylamino)methyl)-5a,5b,8,8,11a-pentamethyl-1-(prop-1-en-2-yl)-2,3,3a,4,5,5a,5b,6,7,7a,8,11,11a,11b,12,13,13a,13b-octadecahydro-1H-cyclopenta[a]chrysen-9-yl)benzoic acid] stands less than 100 nM. Under `C=C(C)[C@@H]1CC[C@]2(CNCCCN3CCN(C)CC3)CC[C@]3(C)[C@H](CC[C@@H]4[C@@]5(C)CC=C(c6ccc(C(=O)O)cc6)C(C)(C)[C@@H]5CC[C@]43C)[C@@H]12` [Example 56, 4-((1R,3aS,5aR,5bR,7aR,11aS,11bR,13aR,13bR)-5a,5b,8,8,11a-pentamethyl-3a-((3-(4-methylpiperazin-1-yl)propylamino)methyl)-1-(prop-1-en-2-yl)-2,3,3a,4,5,5a,5b,6,7,7a,8,11,11a,11b,12,13,13a,13b-octadecahydro-1H-cyclopenta[a]chrysen-9-yl)benzoic acid] stands less than 100 nM. On to `C=C(C)[C@@H]1CC[C@]2(CNCCN(C(C)C)C(C)C)CC[C@]3(C)[C@H](CC[C@@H]4[C@@]5(C)CC=C(c6ccc(C(=O)O)cc6)C(C)(C)[C@@H]5CC[C@]43C)[C@@H]12` [Example 57, 4-((1R,3aS,5aR,5bR,7aR,11aS,11bR,13aR,13bR)-3a-((2-(diisopropylamino)ethylamino)methyl)-5a,5b,8,8,11a-pentamethyl-1-(prop-1-en-2-yl)-2,3,3a,4,5,5a,5b,6,7,7a,8,11,11a,11b,12,13,13a,13b-octadecahydro-1H-cyclopenta[a]chrysen-9-yl)benzoic acid], for which the 50% effective concentration (EC50) was less than 100 nM. On to `C=C(C)[C@@H]1CC[C@]2(CNCCCN3CCCC3=O)CC[C@]3(C)[C@H](CC[C@@H]4[C@@]5(C)CC=C(c6ccc(C(=O)O)cc6)C(C)(C)[C@@H]5CC[C@]43C)[C@@H]12` [Example 58, 4-((1R,3aS,5aR,5bR,7aR,11aS,11bR,13aR,13bR)-5a,5b,8,8,11a-pentamethyl-3a-((3-(2-oxopyrrolidin-1-yl)propylamino)methyl)-1-(prop-1-en-2-yl)-2,3,3a,4,5,5a,5b,6,7,7a,8,11,11a,11b,12,13,13a,13b-octadecahydro-1H-cyclopenta[a]chrysen-9-yl)benzoic acid], for which the EC50 was less than 100 nM.

(Values after patent US8748415B2 (priority 2011, dated 2014).)
